Test results: patent US6534523B1, “Hepatitis C inhibitor tri-peptides” (Boehringer Ingelheim (Canada) Ltd., priority 1998, dated 2003)

Target: T1, full length NS3-NS4A heterodimer protein (His-NS3-NS4AFL) (Hepatitis C virus genotype 1b, UniProt P26663)
T1 construct: The full length mature NS3 and NS4A heterodimer protein (His-NS3-NS4AFL) was expressed; made in house; host or cells: Sf21 insect cells, recombinant baculovirus
Experiment: Full-length NS3-NS4A heterodimer protein assay (Example 38)
Type: biochemical, HCV genotype 1b
Source text: Full-length NS3-NS4A Heterodimer Protein Assay
The NS2-NS5B-3′ non coding region was cloned by RT-PCR into the pCR®3 vector (Invitrogen) using RNA extracted from the serum of an HCV genotype 1b infected individual (provided by Dr. Bernard Willems, Hôpital St-Luc, Montréal, Québec, Canada). The NS3-NS4A DNA region was then subcloned by PCR into the pFastBac™ HTa baculovirus expression vector (Gibco/BRL). The vector sequence includes a region encoding a 28-residue N-terminal sequence which contains a hexahistidine tag. The Bac-to-Bac™ baculovirus expression system (Gibco/BRL) was used to produce the recombinant baculovirus. The full length mature NS3 and NS4A heterodimer protein (His-NS3-NS4AFL) was expressed by infecting 10^6 Sf21 cells/mL with the recombinant baculovirus at a multiplicity of infection of 0.1-0.2 at 27° C. The infected culture was harvested 48 to 64 h later by centrifugation at 4° C. The cell pellet was homogenized in 50 mM NaPO4, pH 7.5, 40% glycerol (w/v), 2 mM β-mercaptoethanol, in presence of a cocktail of protease inhibitors. […] Fluorescence of the N-terminal product was monitored on a Perkin-Elmer LS-50B fluorometer equipped with a 96-well plate reader (excitation wavelength: 325 nm; emission wavelength: 423 nm).
The % inhibition was calculated with the following equation: […]

T1 sequence (P26663 1027-1657): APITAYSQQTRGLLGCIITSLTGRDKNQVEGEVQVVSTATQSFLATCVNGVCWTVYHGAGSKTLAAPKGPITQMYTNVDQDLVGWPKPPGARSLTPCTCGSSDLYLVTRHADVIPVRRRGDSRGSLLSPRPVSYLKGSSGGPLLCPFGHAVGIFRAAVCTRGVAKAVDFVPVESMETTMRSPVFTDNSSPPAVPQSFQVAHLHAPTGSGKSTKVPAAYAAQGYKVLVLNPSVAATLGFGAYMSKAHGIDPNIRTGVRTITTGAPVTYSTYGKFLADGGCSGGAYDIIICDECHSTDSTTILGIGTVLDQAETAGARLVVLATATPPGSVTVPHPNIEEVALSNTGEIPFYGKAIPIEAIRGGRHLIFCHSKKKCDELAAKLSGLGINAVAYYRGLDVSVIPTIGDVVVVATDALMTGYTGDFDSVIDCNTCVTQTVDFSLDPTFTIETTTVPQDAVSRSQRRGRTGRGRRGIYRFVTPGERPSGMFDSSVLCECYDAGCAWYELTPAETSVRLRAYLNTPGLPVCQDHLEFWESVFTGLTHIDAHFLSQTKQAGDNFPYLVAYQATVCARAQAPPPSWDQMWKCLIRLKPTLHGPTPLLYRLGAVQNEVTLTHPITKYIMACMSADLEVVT
T1 sequence (P26663 1658-1711): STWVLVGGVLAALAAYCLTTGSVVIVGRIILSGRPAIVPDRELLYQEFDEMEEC

For `C=C[C@@H]1C[C@]1(NC(=O)[C@@H]1C[C@@H](Oc2cc(-c3ccccc3)nc3cc(OC)ccc23)CN1C(=O)[C@@H](NC(=O)OC(C)(C)C)C(C)C)C(=O)O` [compound 601], the IC50 was 30 nM.
